Where a SMILES comes first, the peptide text is derived from it. Bridges are numbered along the chain shown (N, C = ends).
Columns and labels:
HT-29 cells = test: Confocal imaging of labelled peptides in fixed, permeabilised HT-29 cells; format: cell-based, human; settings: 10 nM labelled peptide, 30 min, cells untreated (DMSO), apoptosis (TNF + BV-6) or necroptosis (TSZ), 6 h, washed
Protocol: HT-29 cells grown in TC treated T175 flasks (Corning^TM) were aspirated, washed once with RT DPBS then trypsinised with 0.3 vol warmed trypsin EDTA for 3–5 min at 37 °C twice. Trypsin was quenched with 0.7 vol warmed D10 and then the mixture was centrifuged 400×g at RT for 5 min. Supernatant was discarded, then cells were resuspended in warm supplemented DMEM. A small sample was diluted 1:10 in trypan blue and loaded onto a haemocytometer for cell counting, then the cell suspension was diluted in warmed DMEM to 8.5 × 10^4 cells/ml. Cells were seeded onto a 96-well clear bottom PhenoPlate (Revvity) coated in a collagen I matrix at 1.7 × 10^4 cells/well and incubated at 37 °C in 5% CO2 overnight.
CellTracker^TM Orange CMRA (Invitrogen) was diluted to 5 μM in DMEM and warmed to 37 °C. HT-29 cells were washed once in DPBS, then CellTracker^TM Orange (50 μl) was added to each well (excluding wells to be incubated with Alexa Fluor 594-labelled control peptide) and incubated at 37 °C in 5% CO2 for 45 min. Following incubation, CellTracker^TM Orange solution was aspirated and replaced with 150 μl D10. […]
Imaging was performed on an Opera Phenix (PerkinElmer) at 63X magnification (water immersion) in confocal mode using the parameters given below. […] Intensity thresholds were adjusted as indicated to remove background fluorescence based on control wells for image exports. […] Cell counts were identified using DAPI stain (Method C) and cytoplasm identified by CellTracker^TM Orange stain (Method B), and all subsequent analysis was conducted on Cy5 fluorescence detected within cells as determined by these parameters. Total Cy5 intensity analysis, as well as spot analysis (spots detected using Method B), was performed measuring number of detected spots, mean spot size (px^2) and spot fluorescence intensity (corrected and relative). […] Statistical significance between untreated, apoptosis and necroptosis induced conditions and between no peptide controls was determined by 2-way ANOVA testing using Tukey’s multiple comparisons tests.

[1] = Turbidity assay (absorbance at 350 nm); format: physicochemical; settings: qualitative, tetra-lysine-tagged compared with K* peptide
Protocol: Solutions with appropriate buffering agent at pH 4.0–8.0 as specified, NaCl as required and containing 40 μM ThT were prepared in Corning^TM black clear bottom 96-well plates (cat no. 3631). Peptides and proteins were diluted from concentrated stocks into buffer immediately prior to measurement. […] Plates were sealed with optically clear sealing film (Corning^TM, cat no. 6575) and loaded into a BMG POLARstar Omega microplate reader maintained at RT or 37 °C. Plates were shaken for 30 s at 700 rpm before first read (unless otherwise specified), and wells were excited at 440 nm, with fluorescence emission measured at 480 nm (filters +/– 10 nm). The gain was set at 1–5% from a buffer and ThT-containing sample. Assays were continued until fluorescence emission plateaued. Turbidity assays were performed concurrently to ThT assays, with absorbance at 350 nm measured after ThT emission measurement.

solubility [1] | Compound | presence/binding of labelled peptide in fixed, permeabilised cells (HT-29 cells)
 | CC[C@H](C)[C@@H]1NC(=O)[C@H](Cc2ccc(O)cc2)NC(=O)CSC[C@@H](C(=O)N[C@@H](Cc2c[nH]c3ccccc23)C(=O)N[C@H](C(=O)N[C@@H](Cc2c[nH]c3ccccc23)C(=O)N[C@@H](CC(C)C)C(=O)N[C@@H](CC(C)C)C(=O)N[C@@H](CO)C(=O)NCC(=O)N[C@@H](CCCCN)C(=O)N[C@@H](CCCCN)C(=O)N[C@@H](CCCCN)C(=O)N[C@@H](CCCCN)C(=O)O)C(C)C)NC(=O)[C@H](CCC(N)=O)NC(=O)[C@H](CC(=O)O)NC(=O)[C@H](Cc2ccc(O)cc2)NC(=O)[C@H](Cc2c[nH]c3ccccc23)NC(=O)[C@H](CCCNC(=N)N)NC(=O)[C@H](CC(C)C)NC(=O)[C@H](C(C)C)NC(=O)[C@H](CCC(=O)O)NC1=O [A4Ktag] ({CH2CO}-YIEVLRWYDQCWVWLLSGKKKK-OH; thioether N-11; C-terminus assumed) | observed inside all cells
increased solubility | CC(C)C[C@H](NC(=O)[C@H](C)NC(=O)[C@H](Cc1ccc(O)cc1)NC(=O)[C@H](Cc1ccccc1)NC(=O)[C@H](CCCNC(=N)N)NC(=O)[C@H](CCCCN)NC(=O)[C@H](C)NC(=O)[C@H](CCCNC(=N)N)NC(=O)[C@H](CC(C)C)NC(=O)[C@@H](NC(=O)[C@@H]1CSCC(=O)N[C@@H](Cc2ccc(O)cc2)C(=O)N[C@@H](C(C)C)C(=O)N[C@@H](CC(C)C)C(=O)N1)[C@@H](C)O)C(=O)N[C@@H](Cc1ccccc1)C(=O)N[C@@H](CC(C)C)C(=O)N[C@@H](CO)C(=O)NCC(=O)N[C@@H](CCCCN)C(=O)N[C@@H](CCCCN)C(=O)N[C@@H](CCCCN)C(=O)N[C@@H](CCCCN)C(=O)O [A1Ktag] ({CH2CO}-YVLCTLRAKRFYALFLSGKKKK-OH; thioether N-4; C-terminus assumed) | observed inside all cells
 | CC[C@H](C)[C@@H]1NC(=O)[C@H](Cc2ccc(O)cc2)NC(=O)[C@H](CCCNC(=N)N)NC(=O)[C@H](CO)NC(=O)[C@H](Cc2c[nH]c3ccccc23)NC(=O)[C@@H]2CCCN2C(=O)[C@H](C(C)C)NC(=O)[C@H](CC(N)=O)NC(=O)[C@H](Cc2ccccc2)NC(=O)[C@H](Cc2ccc(O)cc2)NC(=O)CSC[C@@H](C(=O)NCC(=O)N[C@@H](CCCCN)C(=O)N[C@@H](CCCCN)C(=O)N[C@@H](CCCCN)C(=O)N[C@@H](CCCCN)C(=O)O)NC(=O)[C@H](Cc2ccc(O)cc2)NC(=O)[C@H](Cc2ccc(O)cc2)NC(=O)[C@H](C(C)C)NC(=O)[C@H](CO)NC(=O)[C@H](CC(C)C)NC1=O [A2Ktag] ({CH2CO}-YFNVPWSRYILSVYYCGKKKK-OH; thioether N-16; C-terminus assumed) | observed inside all cells

From PMC12905488, “De novo cyclic peptides allow visualisation of the monomeric and functional amyloid conformations of the kinase RIPK3” (Biochemical Journal, 2026)
